target: hA2A receptor (Homo sapiens (Human), UniProt P29274); assay: binding affinity IC50 to hA2A receptor ([3H]-CGS 21680 filter binding, Effect Embodiment 2); details: A2A membrane, [3H]-CGS 21680 (final 25 nM), 90 minutes at 25° C.
Description: Evaluation experiment of the binding affinity IC50 of the compounds 1-61 to hA2A receptor
40 uL of ULTIMA GOLD scintillation fluid was added to each well and the CPM (count per minute) value was read by TopCount.

Chain of hA2A receptor (P29274 whole entry): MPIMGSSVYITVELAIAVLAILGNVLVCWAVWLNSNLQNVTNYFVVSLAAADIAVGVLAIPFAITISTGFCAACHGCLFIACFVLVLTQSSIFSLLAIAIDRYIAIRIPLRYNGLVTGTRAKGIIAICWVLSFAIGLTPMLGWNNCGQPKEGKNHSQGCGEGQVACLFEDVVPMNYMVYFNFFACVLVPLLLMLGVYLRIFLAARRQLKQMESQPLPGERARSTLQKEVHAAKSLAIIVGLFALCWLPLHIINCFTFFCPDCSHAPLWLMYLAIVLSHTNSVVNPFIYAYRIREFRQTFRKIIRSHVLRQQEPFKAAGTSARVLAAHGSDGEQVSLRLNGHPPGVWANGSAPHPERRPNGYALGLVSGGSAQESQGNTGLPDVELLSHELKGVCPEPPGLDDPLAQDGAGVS

Compound | IC50
CN1C(=O)c2c(-c3ccco3)nc(N)nc2C1Cc1ccccc1OC(F)(F)F (stereo not drawn) [Compound 45, 2-amino-7-((2-trifluoromethoxylphenyl)methyl)-4-(furan-2-yl)-6-methyl-5H,6H,7H-pyrrolo[3,4-d]pyrimidin-5-one] | 0.0116 µM
Nc1nc(-c2ccco2)c2c(n1)C(Cc1c(F)cccc1F)OC2=O (stereo not drawn) [Compound 22, 2-amino-7-((2,6-difluorophenyl)methyl)-4-(furan-2-yl)-5H,7H-furo[3,4-d]pyrimidin-5-one] | 0.0473 µM
Cc1ccc(-c2nc(N)nc3c2C(=O)OC3Cc2cc(F)ccc2F)o1 (stereo not drawn) [Compound 29, 2-amino-7-((2,5-difluorophenyl)methyl)-4-(5-methylfuran-2-yl)-5H,7H-furo[3,4-d]pyrimidin-5-one] | 0.252 µM
Cc1ccc(-c2nc(N)nc3c2C(=O)N(C)C3=Cc2ccccc2OC(F)(F)F)o1 [Compound 52, 2-amino-7-((2-(trifluoromethoxyl)phenyl)methylene)-4-(5-methylfuran-2-yl)-6-methyl-5H,6H,7H-pyrrolo[3,4-d]pyrimidin-5-one] | 0.0036 µM
CN1C(=O)c2c(-c3ccco3)nc(N)nc2C1Cc1ccccc1F (stereo not drawn) [Compound 44, 2-amino-7-((2-fluorophenyl)methyl)-4-(furan-2-yl)-6-methyl-5H,6H,7H-pyrrolo[3,4-d]pyrimidin-5-one] | 0.0646 µM
Nc1nc(-c2ccc(Br)o2)c2c(n1)C(Cc1ccccc1OC(F)(F)F)OC2=O (stereo not drawn) [Compound 37, 2-amino-7-((2-(trifluoromethoxyl)phenyl)methyl)-4-(5-bromofuran-2-yl)-5H,7H-furo[3,4-d]pyrimidin-5-one] | 0.0674 µM
Cc1ccc(-c2nc(N)nc3c2C(=O)OC3Cc2ccccc2F)o1 (stereo not drawn) [Compound 27, 2-amino-7-((2-fluorophenyl)methyl)-4-(5-methylfuran-2-yl)-5H,7H-furo[3,4-d]pyrimidin-5-one] | 0.021 µM
Cc1ccc(-c2nc(N)nc3c2C(=O)OC3Cc2ccccc2OC(F)(F)F)o1 (stereo not drawn) [Compound 36, 2-amino-7-((2-(trifluoromethoxyl)phenyl)methyl)-4-(5-methylfuran-2-yl)-5H,7H-furo[3,4-d]pyrimidin-5-one] | 0.0281 µM
Cc1ccc(-c2nc(N)nc3c2C(=O)N(C)C3=Cc2ccc(F)cc2F)o1 [Compound 48, 2-amino-7-((2,4-difluorophenyl)methylene)-4-(5-methylfuran-2-yl)-6-methyl-5H,6H,7H-pyrrolo[3,4-d]pyrimidin-5-one] | 0.0132 µM
Cc1ccc(-c2nc(N)nc3c2C(=O)N(C)C3Cc2cc[n+]([O-])cc2)o1 (stereo not drawn) [Compound 58, 4-((2-amino-6-methyl-4-(5-methylfuran-2-yl)-5-carbonyl-5H-pyrrolo[3,4-d]pyrimidin-7(6H)-ene)methyl)-N-oxide pyridine] | 0.021 µM
Cc1ccc(-c2nc(N)nc3c2C(=O)N(C)/C3=C\c2ccccc2C(F)(F)F)o1 [Compound 51, 2-amino-7-((2-(trifluoromethyl)phenyl)methylene)-4-(5-methylfuran-2-yl)-6-methyl-5H,6H,7H-pyrrolo[3,4-d]pyrimidin-5-one] | 0.0047 µM
Cc1ccc(-c2nc(N)nc3c2C(=O)OC3Cc2cc(Cl)ccc2F)o1 (stereo not drawn) [Compound 30, 2-amino-7-((5-chloro-2-fluorophenyl)methyl)-4-(5-methylfuran-2-yl)-5H,7H-furo[3,4-d]pyrimidin-5-one] | 0.094 µM
Nc1nc(-c2ccco2)c2c(n1)C(Cc1ccc(Cl)c(F)c1)OC2=O (stereo not drawn) [Compound 12, 2-amino-7-(4-chloro-3-fluorobenzyl)-4-(furan-2-yl)-5H,7H-furo[3,4-d]pyrimidin-5-one] | 0.0998 µM
Nc1nc(-c2ccco2)c2c(n1)C(Cc1ccccc1)OC2=O (stereo not drawn) [Compound 5, 2-amino-7-benzyl-4-(furan-2-yl)-5H,7H-furo[3,4-d]pyrimidin-5-one] | 0.04 µM
N#Cc1ccc(CC2OC(=O)c3c(-c4ccco4)nc(N)nc32)cc1F (stereo not drawn) [Compound 3] | 0.159 µM
Cc1ccc(-c2nc(N)nc3c2C(=O)OC3Cc2ccc(F)cc2C(F)(F)F)o1 (stereo not drawn) [Compound 32, 2-amino-7-((4-fluoro-2-(trifluoromethyl)phenyl)methyl)-4-(5-methylfuran-2-yl)-5H,7H-furo[3,4-d]pyrimidin-5-one] | 0.0199 µM
Cc1ccc(-c2nc(N)nc3c2C(=O)OC3Cc2ccc(F)cc2F)o1 (stereo not drawn) [Compound 42, 2-amino-7-((2,4-difluorophenyl)methyl)-7-deuterium-4-(5-methylfuran-2-yl)-5H,7H-furo[3,4-d]pyrimidin-5-one] | 0.0874 µM
Cc1ccc(-c2nc(N)nc3c2C(=O)OC3Cc2ccccc2OC(F)F)o1 (stereo not drawn) [Compound 39, 2-amino-7-((2-(difluoromethoxyl)phenyl)methyl)-4-(5-methylfuran-2-yl)-5H,7H-furo[3,4-d]pyrimidin-5-one] | 0.128 µM
Cc1ccc(-c2nc(N)nc3c2C(=O)N(C)C3Cc2ccncc2)o1 (stereo not drawn) [Compound 59, 2-amino-6-methyl-4-(5-methylfuran-2-yl)-7-(pyridin-4-ylmethyl)-6,7-dihydro-5-carbonyl-5H-pyrrolo[3,4-d]pyrimidine] | 0.179 µM
Nc1nc(-c2ccco2)c2c(n1)C(Cc1cc(C(F)(F)F)cc(C(F)(F)F)c1)OC2=O (stereo not drawn) [Compound 20, 2-amino-7-((3,5-di(trifluoromethyl)phenyl)methyl)-4-(furan-2-yl)-5H,7H-furo[3,4-d]pyrimidin-5-one] | 0.299 µM
2-amino-6-(5-methylfuran-2-yl)-9-(2-(trifluoromethyl)phenyl)-8(9H)-carbonyl-7H-purine [Compound 60] | 0.177 µM
Cc1ccc(-c2nc(N)nc3c2C(=O)N(C)C3Cc2ccc(F)cc2C(F)(F)F)o1 (stereo not drawn) [Compound 57, 2-amino-7-((2-(trifluoromethyl)-4-fluorophenyl)methyl)-4-(5-methylfuran-2-yl)-6-methyl-5H,6H,7H-pyrrolo[3,4-d]pyrimidin-5-one] | 0.152 µM
Nc1nc(-c2ccco2)c2c(n1)[C@@H](Cc1ccccc1)OC2 [Compound 6, (R)-7-benzyl-4-(furan-2-yl)-5,7-dihydrofuro[3,4-d]pyrimidin-2-amine] | 0.157 µM

Results, then the compound that gave them:

IC50 | Compound
0.0034 µM | Cc1ccc(-c2nc(N)nc3c2C(=O)N(C)C3=Cc2ccc(F)cc2C(F)(F)F)o1 [Compound 56, 2-amino-7-((2-(trifluoromethyl)-4-fluorophenyl)methylene)-4-(5-methylfuran-2-yl)-6-methyl-5H,6H,7H-pyrrolo[3,4-d]pyrimidin-5-one]
0.0384 µM | Cc1ccc(-c2nc(N)nc3c2C(=O)OC3Cc2c(F)cccc2Cl)o1 (stereo not drawn) [Compound 31, 2-amino-7-((6-chloro-2-fluorophenyl)methyl)-4-(5-methylfuran-2-yl)-5H,7H-furo[3,4-d]pyrimidin-5-one]
0.106 µM | Nc1nc(-c2ccco2)c2c(n1)C(Cc1ccc(OC(F)(F)F)cc1)OC2=O (stereo not drawn) [Compound 21, 2-amino-7-((4-(trifluoromethoxyl)phenyl)methyl)-4-(furan-2-yl)-5H,7H-furo[3,4-d]pyrimidin-5-one]
0.0435 µM | Cn1c(=O)n(Cc2ccccc2F)c2nc(N)nc(-c3ccco3)c21 [Compound 41, 2-amino-9-((2-fluorophenyl)methyl)-6-(furan-2-yl)-7-methyl-8,9-dihydro-7H-purinyl-8-one]
0.0301 µM | Cn1c(=O)n(Cc2ccc(F)cc2F)c2nc(N)nc(-c3ccco3)c21 [Compound 35, 2-amino-9-((2,4-difluorophenyl)methyl)-6-(furan-2-yl)-7-methyl-8,9-dihydro-7H-purinyl-8-one]
0.918 µM | Nc1nc(-c2ccccn2)c2c(n1)C(Cc1ccccc1)OC2=O (stereo not drawn) [Compound 24, 2-amino-7-benzyl-4-(pyridin-2-yl)-5H,7H-furo[3,4-d]pyrimidin-5-one]
0.0321 µM | Cc1ccc(-c2nc(N)nc3c2C(=O)N(C)C3Cc2ccc(F)cc2F)o1 (stereo not drawn) [Compound 49, 2-amino-7-((2,4-difluorophenyl)methyl)-4-(5-methylfuran-2-yl)-6-methyl-5H,6H,7H-pyrrolo[3,4-d]pyrimidin-5-one]
0.218 µM | NC(=O)c1ccc(CC2OC(=O)c3c(-c4ccco4)nc(N)nc32)cc1 (stereo not drawn) [Compound 14, 4-((2-amino-4-(furan-2-yl)-5-oxo-5H,7H-furo[3,4-d]pyrimidin-7-yl)methyl)benzamide]
0.114 µM | Nc1nc(-c2ccco2)c2c(n1)C(Cc1ccc(F)cc1Cl)OC2=O (stereo not drawn) [Compound 10, 2-amino-7-(2-chloro-4-fluorobenzyl)-4-(furan-2-yl)-5H,7H-furo[3,4-d]pyrimidin-5-one]
0.152 µM | CS(=O)(=O)c1ccc(CC2OC(=O)c3c(-c4ccco4)nc(N)nc32)cc1 (stereo not drawn) [Compound 13, 2-amino-4-(furan-2-yl)-7-(4-methylsulfonylbenzyl)-5H,7H-furo[3,4-d]pyrimidin-5-one]
0.275 µM | Nc1nc(-c2ccco2)c2c(n1)[C@H](Cc1ccccc1)OC2 [Compound 33, (S)-7-benzyl-4-(furan-2-yl)-5,7-dihydrofuro[3,4-d]pyrimidin-2-amine]
0.106 µM | 2-amino-9-((2-fluorophenyl)methyl)-6-(furan-2-yl)-7-methyl-8,9-dihydro-7H-purinyl-8-one [Compound 40]
0.0293 µM | Cc1ccc(-c2nc(N)nc3c2C(=O)N(C)C3Cc2ccccc2F)o1 (stereo not drawn) [Compound 55, 2-amino-7-((2-fluorophenyl)methyl)-4-(5-methylfuran-2-yl)-6-methyl-5H,6H,7H-pyrrolo[3,4-d]pyrimidin-5-one]
0.0073 µM | Cc1ccc(-c2nc(N)nc3c2C(=O)N(C)C3=Cc2ccccc2F)o1 [Compound 50, 2-amino-7-((2-fluorophenyl)methylene)-4-(5-methylfuran-2-yl)-6-methyl-5H,6H,7H-pyrrolo[3,4-d]pyrimidin-5-one]
0.0061 µM | CN1C(=O)c2c(nc(N)nc2-c2ccco2)C1=Cc1ccccc1F [Compound 38, 2-amino-7-((2-fluorophenyl)methylene)-4-(furan-2-yl)-6-methyl-5H,6H,7H-pyrrolo[3,4-d]pyrimidin-5-one]
0.249 µM | N#Cc1ccc(CC2OC(=O)c3c(-c4ccco4)nc(N)nc32)cc1 (stereo not drawn) [Compound 4]

— US11066413B2, “Aminopyrimidine five-membered heterocyclic compound, and intermediate, preparation method, pharmaceutical composition and application thereof” (GUANGZHOU MAXINOVEL PHARMACEUTICALS CO., LTD., priority 2017, dated 2021)
